Results as given in patent US5492909A, “Triazolopyridazine derivatives, their production and use” (Takeda Chemical Industries, Ltd., priority 1993, dated 1996).

Tested on: PAF-induced bronchoconstriction
Assay: Effect on bronchoconstriction induced by platelet activating factor (PAF) in guinea pigs (Konzett-Roessler method)
Format: in vivo, guinea pig (male Hartley)
Settings: oral, 1 hour before PAF (1 μg/kg i.v.)
Method: [Effect on bronchoconstriction induced by platelet activating factor (PAF) in guinea pigs]
Male Hartley guinea pigs (body weights about 500 g) were used. The bronchoconstriction reaction in the guinea pig which has intravenously been administered with PAF (1 μg/kg) was measured by the Konzett-Roessler method.
The trachea of the guinea pig with its back fixed was incised under anesthesia condition with urethane (intravenous injection, 1.5 g/kg) and connected with an artificial respirator via a cannula. The branch of the tracheal cannula was connected with a transducer (7020 type, manufactured by Ugobasile). Air was sent to the trachea at the rate of 3 to 7 ml per stroke, 70 strokes/min. and at load pressure of 10 cm H2 O to lung, and overflowed air volume was recorded with Rectegraph (Recte-Hori-8s, Sanei Sokuki Co., Ltd., Japan) via transducer. After the guinea pig was treated with gallamine (intravenous injection, 1 mg/kg), 1 μg/kg of PAF dissolved in a physiological saline solution was administered to the guinea pig via jugular venous cannula and the bronchoconstriction reaction induced thereby was recorded for 15 minutes. The drug (3 mg/kg and 10 mg/kg respectively) suspended in a 5% gum arabic solution was administered orally 1 hour before the injection of PAF.

Compound | Inhibition (%) of PAF-induced bronchoconstriction (3 mg/kg) [%] | Inhibition (%) of PAF-induced bronchoconstriction (10 mg/kg) [%]
CCC(CC)(COc1ccc2nncn2n1)CS(N)(=O)=O [Example 3, 6-(2,2-diethyl-3-sulfamoyl-1-propoxy)[1,2, 4]triazolo[4,3-b]pyridazine] | 51.1 | 61.2
CCC(CC)(COc1cc(C)c2nncn2n1)CS(N)(=O)=O [Example 1, 6-(2,2-diethyl-3-sulfamoyl-1-propoxy)-8-methyl-[1,2,4]triazolo[4,3-b]pyridazine] | 85.8 | 100
CC(C)(COc1ccc2nncn2n1)CS(N)(=O)=O [Example 5, 6-(2,2-dimethyl-3-sulfamoyl-1-propoxy)[1,2,4]triazolo[4,3-b]pyridazine] | 22.4 | 41.2
